US5512553A, “7-(substituted)-8-(substituted)-9-(substituted amino)-6-demethyl-6-deoxytetracyclines” (American Cyanamid Company, priority 1995, dated 1996)
Counter-ions that a name gives are not always drawn. Like-named read-outs stand apart in the source and are kept apart here.

Legend:
[1] = system: S30 extract from E. coli strain MRE 600 (tetracycline sensitive); assay: E. coli in vitro cell free protein translation system, Wild Type S30; assay type: biochemical; details: for % Inhibition Wild Type S30: 35S-methionine incorporation, 30 minutes at 37° C.
Text: (§1) E. coli in Vitro protein Translation System (Table II)
(§2) An in vitro, cell free, protein translation system using extracts from E. coli strain MRE 600 (tetracycline sensitive) and a derivative of MRE 600 containing the tetM determinant has been developed based on literature methods J. M. Pratt, Coupled Transcription-translation in Prokaryotic Cell-free Systems, Transcription and Translation, a Practical Approach, (B. D. Hames and S. J. Higgins, eds) p. 179-209, IRL Press, Oxford-Washington, 1984!.
(§3) Using the system described above, the tetracycline compounds of the present invention are tested for their ability to inhibit protein synthesis in vitro. Briefly, each 10 μl reaction contains S30 extract (a whole extract) made from either tetracycline sensitive cells or an isogenic tetracycline resistant (tetM) strain, low molecular weight components necessary for transcription and translation (i.e., ATP and GTP), a mix of 19 amino acids (no methionine), ^35 S labeled methionine, DNA template (either pBR322 or pUC119), and either DMSO (control) or the novel tetracycline compound to be tested ("novel TC") dissolved in DMSO.
(§4) The reactions are incubated for 30 minutes at 37° C. Timing is initiated with the addition of the S30 extract, the last component to be added. After 30 minutes, 2.5 μl of the reaction is removed and mixed with 0.5 ml of 1N NaOH to destroy RNA and tRNA. Two to three ml of 25% trichloroacetic acid is added and the mixture incubated at room temperature for 15 minutes. The trichloroacetic acid precipitated material is collected on Whatman GF/C filters and washed with a solution of 10% trichloroacetic acid. The filters are dried and the retained radioactivity, representing incorporation of ^35 S-methionine into polypeptides, is counted using standard liquid scintillation methods.
(§5) The percent inhibition (P.I.) of protein synthesis is determined to be: [formula]

[2] = system: S30 extract from derivative of E. coli MRE 600 containing the tetM determinant; assay: E. coli in vitro cell free protein translation system, TetM S30; assay type: biochemical; details: for % Inhibition TetM S30: 35S-methionine incorporation, 30 minutes at 37° C.
Text: as §1, §2, §3, §4, §5

[3] = system: Staphylococcus aureus strain Smith (tetracycline sensitive); assay: In vivo antibacterial evaluation, acute lethal infection in mice; details: 168 h, female mice CD-1, intraperitoneal challenge with S. aureus Smith, dosed subcutaneously or orally 30 minutes after infection, 7 day survival ratios
Description: In Vivo Antibacterial Evaluation (Table III)
The therapeutic effects of tetracyclines are determined against an acute lethal infection with Staphylococcus aureus strain Smith (tetracycline sensitive). Female, mice, strain CD-1 (Charles River Laboratories), 20±2 grams, are challenged by an intraperitoneal injection of sufficient bacteria (suspended in hog mucin) to kill non-treated controls within 24-48 hours. Antibacterial agents, contained in 0.5 ml of 0.2% aqueous agar, are administered subcutaneously or orally 30 minutes after infection. When an oral dosing schedule is used, animals are deprived of food for 5 hours before and 2 hours after infection. Five mice are treated at each dose level. The 7 day survival ratios from 3 separate tests are pooled for calculation of median effective dose (ED50).

E. coli UBMS 88-1 (tetB) = assay: microbe, parasite or virus in culture; assay type: cell-based; details: Escherichia coli, 18 h
Description: (§6) Method for In Vitro Antibacterial Evaluation (Table I)
(§7) The minimum inhibitory concentration (MIC), the lowest concentration of the antibiotic which inhibits growth of the test organism, is determined by the agar dilution method using Muller-Hinton II agar (Baltimore Biological Laboratories). An inoculum density of 1-5×10^5 CFU/ml and an antibiotic concentration (32-≤0.015 μg/ml) is used. The plates are incubated for 18 hours at 35° C. in a forced air incubator. The test organisms comprise strains sensitive to tetracycline and genetically defined strains that are resistant to tetracycline, due to inability to bind bacterial ribosomes (tetM).

[4] = system: S. aureus UBMS 88-5 (tetM); assay: microbe, parasite or virus in culture; assay type: cell-based; details: Staphylococcus aureus, 18 h
Description: as §6, §7

[5] = system: S. aureus UBMS 90-2 (tetM); assay: microbe, parasite or virus in culture; assay type: cell-based; details: Staphylococcus aureus, 18 h
Description: as §6, §7

[6] = system: S. aureus UBMS 88-7 (tetK); assay: microbe, parasite or virus in culture; assay type: cell-based; details: Staphylococcus aureus, 18 h
Description: as §6, §7

[7] = system: S. aureus UBMS 90-1 (tetM); assay: microbe, parasite or virus in culture; assay type: cell-based; details: Staphylococcus aureus, 18 h
Description: as §6, §7

Enteroc. spp. 12201 = assay: In vitro antibacterial evaluation, MIC by agar dilution; assay type: cell-based
Description: as §6, §7

[8] = system: S. aureus SMITH (MP) (sensitive); assay: as above; assay type: cell-based; details: Staphylococcus aureus
Description: as §6, §7

[9] = system: S. aureus ATCC 29213 (sensitive); assay: as above; assay type: cell-based; details: Staphylococcus aureus
Description: as §6, §7

[10] = system: S. aureus UBMS 90-3 (sensitive); assay: as above; assay type: cell-based; details: Staphylococcus aureus
Description: as §6, §7

S. faecal. ATCC 29212 = assay: as above; assay type: cell-based
Description: as §6, §7

S. haemol. AVAH 88-3 = assay: as above; assay type: cell-based
Description: as §6, §7

[11] = system: S. aureus IVES 2943 (meth. resistant); assay: as above; assay type: cell-based; details: Staphylococcus aureus, 18 h
Description: as §6, §7

[12] = system: S. aureus IVES 1983 (MP) (meth. resistant); assay: as above; assay type: cell-based; details: Staphylococcus aureus
Description: as §6, §7

[13] = system: E. coli UBMS 88-2 (sensitive); assay: as above; assay type: cell-based; details: Escherichia coli
Description: as §6, §7

[14] = system: S. aureus UBMS 88-4 (sensitive); assay: as above; assay type: cell-based; details: Staphylococcus aureus, 18 h
Description: as §6, §7

E. coli ATCC 25922 = assay: as above; assay type: cell-based; details: Escherichia coli
Description: as §6, §7

[15] = system: E. coli UBMS 89-2 (sensitive); assay: as above; assay type: cell-based; details: Escherichia coli, Muller-Hinton II agar, 18 hours at 35° C.
Description: as §6, §7

E. coli UBMS 89-1 (tetM) = assay: microbe, parasite or virus in culture; assay type: cell-based; details: Escherichia coli, 18 h
Description: as §6, §7

[16] = ATCC29213, agar dilution, Muller-Hinton II agar, 18 hours at 35° C., S. aureus ATCC 29213 (sensitive), read-out: MIC
[17] = agar dilution, Muller-Hinton II agar, 18 hours at 35° C., S. faecal. ATCC 29212, read-out: MIC

Structure (SMILES)	ED50 [3]	MIC (E. coli UBMS 88-1 (tetB))	MIC [4]	MIC [5]	MIC [6]	MIC [7]	MIC (Enteroc. spp. 12201; 18 h)	MIC ([8]; 18 h)	MIC [9, 16]	MIC ([10]; 18 h)	MIC (S. faecal. ATCC 29212; [17])	MIC (S. haemol. AVAH 88-3; 18 h)	MIC [11]	MIC ([12]; 18 h)	MIC [14]	MIC (E. coli ATCC 25922; ATCC25922, 18 h)	MIC [15]	MIC (E. coli UBMS 89-1 (tetM))	MIC ([13]; 18 h)	further results
CN(C)c1c(Cl)c(N)c(O)c2c1CC1CC3[C@H](N(C)C)C(O)=C(C(N)=O)C(=O)[C@@]3(O)C(O)=C1C2=O (stereo partly drawn) [H, 9-Amino-8-chloro-4,7-(dimethylamino)-1,4-4a,5,5a,6,11,12a-octahydro-3,10,12,12a-tetrahydroxy-1,11-dioxo-2-naphthacenecarboxamide sulfate]	4 to 8 mg/kg	> 32 µg/mL	1 µg/mL	0.5 µg/mL	0.25 µg/mL	2 µg/mL	4 µg/mL	0.06 µg/mL	< 0.015 µg/mL	0.12 µg/mL	0.5 µg/mL	0.12 µg/mL	1 µg/mL	4 µg/mL	0.12 µg/mL	4 µg/mL	16 µg/mL			% Inhibition Wild Type S30 ([1]; Conc. 0.1 mg/ml): 52%; % Inhibition Wild Type S30 ([1]; Conc. 0.3 mg/ml): 62%; % Inhibition Wild Type S30 ([1]; Conc. 1.0 mg/ml): 57%; % Inhibition TetM S30 ([2]; Conc. 0.1 mg/ml): 19%; % Inhibition TetM S30 ([2]; Conc. 0.3 mg/ml): 21%; % Inhibition TetM S30 ([2]; Conc. 1.0 mg/ml): 29%; MIC ([13]; agar dilution, Muller-Hinton II agar, 18 hours at 35° C., E. coli UBMS 88-2 (sensitive), read-out: MIC): 8 µg/mL
CN(C)[C@@H]1C(O)=C(C(N)=O)C(=O)[C@@]2(O)C(O)=C3C(=O)c4c(cc(Cl)c(NN)c4O)CC3CC12 (stereo partly drawn) [J, 4S-(4alpha, 12aalpha)!-8-Chloro-4-(dimethylamino)-9-hydrazino-1,4,4a,5,5a,6-11,12a-octahydro-3,10,12,12a-tetrahydroxy-1,11-dioxo-2-naphthacenecarboxamide monohydrochloride]	> 16 mg/kg	32 µg/mL	0.5 µg/mL	0.5 µg/mL	1 µg/mL	0.5 µg/mL			≤ 0.015 µg/mL		0.5 µg/mL				0.06 µg/mL		4 µg/mL	16 µg/mL	2 µg/mL	MIC (Enteroc. spp. 12201; agar dilution, Muller-Hinton II agar, 18 hours at 35° C., Enteroc. spp. 12201, read-out: MIC): 0.05 µg/mL; MIC ([8]; agar dilution, Muller-Hinton II agar, 18 hours at 35° C., S. aureus SMITH (MP) (sensitive), read-out: MIC): 0.03 µg/mL; MIC ([10]; agar dilution, Muller-Hinton II agar, 18 hours at 35° C., S. aureus UBMS 90-3 (sensitive), read-out: MIC): 0.03 µg/mL; MIC (S. haemol. AVAH 88-3; agar dilution, Muller-Hinton II agar, 18 hours at 35° C., S. haemol. AVAH 88-3, read-out: MIC): 0.25 µg/mL; MIC ([12]; agar dilution, Muller-Hinton II agar, 18 hours at 35° C., S. aureus IVES 1983 (MP) (meth. resistant), read-out: MIC): 2 µg/mL; MIC (E. coli ATCC 25922; ATCC25922, agar dilution, Muller-Hinton II agar, 18 hours at 35° C., E. coli ATCC 25922, read-out: MIC): 1 µg/mL
CN(C)[C@@H]1C(=O)C(C(N)=O)=C(O)[C@@]2(O)C(=O)C3=C(O)c4c(O)cccc4[C@@](C)(O)[C@H]3C[C@@H]12 [K, Tetracycline hydrochloride, reference compound]		> 32 µg/mL	> 32 µg/mL	32 µg/mL	> 32 µg/mL	> 32 µg/mL	32 µg/mL	0.06 µg/mL		0.06 µg/mL		1 µg/mL	> 32 µg/mL	> 32 µg/mL	0.12 µg/mL	0.5 µg/mL	1 µg/mL	16 µg/mL	0.25 µg/mL	inhibition of protein synthesis, in words ([1]; cell-free extracts from tetracycline susceptible strain MRE600): inhibited; inhibition of protein synthesis, in words ([2]; cell-free extracts from strain MRE600 (tetM)): resistant; MIC ([9]; ATCC29213, 18 h): ≤ 0.015 µg/mL; MIC (S. faecal. ATCC 29212; 18 h): 16 µg/mL
CCN(CC)c1c(Cl)c(N)c(O)c2c1CC1CC3[C@H](N(C)C)C(O)=C(C(N)=O)C(=O)[C@@]3(O)C(O)=C1C2=O (stereo partly drawn) [M]	> 16 mg/kg																			
